Test results from ChEMBL document CHEMBL5321296, “Structure-Based Ligand Discovery Targeting the Transmembrane Domain of Frizzled Receptor FZD7” (J Med Chem, 2023).
Active and inactive are the calls of the source. The rule behind the calls is not given here.

How the values were obtained:
[1] = Inhibition of Wnt/beta-catenin signalling in Wnt3a stimulated human HEK293 cells assessed as reduction in luciferase activity incubated for 24 hrs by TOPFlash luciferase reporter assay; type: cell-based; details: HEK293, 24 h
[2] = biological target: Protein smoothened (Homo sapiens) (UniProt Q99835); assay: Binding affinity to SMO (unknown origin) assessed as dissociation constant by SPR analysis
[3] = biological target: Frizzled-7 (Homo sapiens, UniProt O75084); assay: Antagonist activity at his-tagged FZD7 transmembrane domain (unknown origin) assessed as dissociation constant by SPR analysis

Chain of Protein smoothened (Homo sapiens) (Q99835 whole entry, the tested form may be a part): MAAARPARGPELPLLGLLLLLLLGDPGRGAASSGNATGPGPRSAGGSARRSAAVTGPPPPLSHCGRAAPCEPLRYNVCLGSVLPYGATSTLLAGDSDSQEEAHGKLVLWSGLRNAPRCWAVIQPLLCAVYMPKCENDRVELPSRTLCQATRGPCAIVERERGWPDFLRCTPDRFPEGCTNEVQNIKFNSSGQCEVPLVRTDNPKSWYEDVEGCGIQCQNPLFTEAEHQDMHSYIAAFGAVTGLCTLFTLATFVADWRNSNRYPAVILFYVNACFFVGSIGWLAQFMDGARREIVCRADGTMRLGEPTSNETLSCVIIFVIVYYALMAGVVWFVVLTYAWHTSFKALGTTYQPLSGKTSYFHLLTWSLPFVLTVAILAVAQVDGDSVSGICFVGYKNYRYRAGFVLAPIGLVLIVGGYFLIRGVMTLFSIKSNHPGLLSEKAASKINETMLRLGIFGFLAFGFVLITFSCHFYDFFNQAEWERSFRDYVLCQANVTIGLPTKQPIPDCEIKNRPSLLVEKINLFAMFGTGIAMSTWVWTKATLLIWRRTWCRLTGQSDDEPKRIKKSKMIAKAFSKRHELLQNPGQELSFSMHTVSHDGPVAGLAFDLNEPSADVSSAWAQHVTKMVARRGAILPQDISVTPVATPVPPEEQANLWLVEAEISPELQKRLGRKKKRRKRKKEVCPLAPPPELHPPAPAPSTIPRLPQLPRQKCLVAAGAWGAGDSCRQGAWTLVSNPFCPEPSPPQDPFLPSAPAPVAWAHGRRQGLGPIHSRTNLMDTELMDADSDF

IC50 [1] [nM] | Activity [2] | Kd [3] [nM] | SMILES
1280 | inactive | 160 | O=C(CSc1ccc(NC(=O)c2ccc(F)cc2)cc1)Nc1nc(-c2ccccc2)cs1
230 |  |  | Cc1ccc(C(=O)Nc2ccc(SCC(=O)Nc3nc(-c4ccccc4)cs3)cc2)cc1
40 |  |  | Cc1ccc(C(=O)Nc2ccc(SCC(=O)Nc3nc(-c4ccccc4)cs3)cc2)c(C)c1
